Measurements from patent US6906205B2, “Spiro and dispiro 1,2,4-trioxolane antimalarials” (Medicines for Malaria Venture MMV, priority 2002, dated 2005).
≈ marks a conversion by molar mass, not a printed value.

Columns and labels:
[1] = system: ANKA strain of Plasmodium berghei; assay: single dose ED50/ED90/ED99 determinations in infected mice; type: in vivo; settings: single dose po in SSV, mice, percent reduction in parasitemia on day three post-infection
Experimental: In the single dose ED50/ED90/ED99 determinations, Moro SPF or NMRI mice (group of three) infected with the ANKA strain of Plasmodium berghei were treated on day one post-infection. […] The SSV consists of 0.5% w/v CMC, 0.5% v/v benzyl alcohol, 0.4% v/v Tween 80, and 0.9% w/v sodium chloride in water. Antimalarial activity was measured by percent reduction in parasitemia on day three post-infection. The ED50/ED90 values were calculated by nonlinear fitting.

P. berghei ANKA strain [2] = assay: treatment: 3x10 mg/kg p.o. divided dose vs 1x30 mg/kg po single dose in infected mice; type: in vivo, Plasmodium berghei; settings: survival to day 30 post-infection = cure, cured/treated mice
Experimental: Moro NMRI male mice (Fü Albino specific pathogen free) weighing 18±2 g were infected intravenously (i.v.) with 2×10^7 P. berghei ANKA strain-infected erythrocytes from donor mice on day 0 of the experiment. From donor mice with circa 30% parasitemia, heparinized blood was taken and diluted in physiological saline to 10^8 parasitized erythrocytes per ml. An aliquot (0.2 ml) of this suspension was injected i.v. into experimental and control groups of mice. […] Throughout the experiments, mice were kept in groups of three or five animals in Makrolon type II cages in an air-conditioned animal room at 22 to 23° C.
They were administered per os (p.o.) in a total volume of 0.01 ml per gram of mouse. The activity of the compound was determined by a variety of methods outlined in subsequent sections. Survival time was also recorded, and survival to day 30 post-infection was considered to be a cure.
The first experiment conducted consisted of administration of a divided 3×10 mg/kg p.o. dose administered on days 1, 2, and 3 post-infection vs. a single 1×30 mg/kg po dose administered on day 1 post-infection. On day 4 post-infection, blood smears of all animals were prepared and stained with Giemsa. […] Compounds were administered orally in the SSV vehicle.

[3] = system: P. falciparum K1 strain (Thailand resistant to chloroquine); assay: semiautomated microdilution assay, [3H]-hypoxanthine incorporation, K1 strain; type: cell-based, Plasmodium falciparum; settings: K1 strain, 72 h incubation
Summary of the method: (§1)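 Logit regression analysis was used to estimate IC50 values. Parasites were intraerythrocytic forms from asynchronous stock cultures, and compounds were tested by semiautomated microdilution.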

[4] = system: P. falciparum NF54 strain (sensitive to standard antimalarials); assay: semiautomated microdilution assay, [3H]-hypoxanthine incorporation, NF54 strain; type: cell-based, Plasmodium falciparum; settings: NF54 strain, 72 h incubation
Summary of the method: as §1

[5] = system: ANKA strain of P. berghei; assay: single dose STI in vivo screen in infected mice; set-up: species or system Plasmodium berghei; settings: for Activity (%) po / Activity (%) sc / Activity (%) SSVpo: percent reduction in parasitemia day 3 post-infection, mice; for Activity (%) po / Survival (days) po: single 10 mg/kg po in 3% ethanol and 7% Tween 80; for Activity (%) sc / Survival (days) sc: single 10 mg/kg sc in 3% ethanol and 7% Tween 80; for Activity (%) SSVpo: single po dose in standard suspending vehicle (SSV); for Survival (days) po / Survival (days) sc / Survival (days) SSVpo: untreated control 5.6 ± 0.3; for Survival (days) SSVpo: single po dose in SSV
Summary of the method: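 Groups of 3-5 Moro SPF or NMRI mice infected with the ANKA strain of P. berghei received a single dose of trioxolane on day one post-infection. The compound was given in 3% ethanol and 7% Tween 80 or in SSV (0.5% w/v CMC, 0.5% v/v benzyl alcohol, 0.4% v/v Tween 80, 0.9% w/v sodium chloride in water). Antimalarial activity was scored as percent reduction in parasitemia on day three and as survival time versus untreated controls. Survival to day 30 counted as cure.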

[6] = system: Schistosoma mansoni 21-day-old schistosomules; assay: effect on 21-day-old schistosomules in mice; type: in vivo; settings: single 200 mg/kg per os, female mice
Experimental: All groups were killed 4 weeks after treatment and the liver and intestine were removed and separated. The liver and intestine were compressed and alive male and female worms could be seen and counted. The effect of the compounds was evaluated by mean total and female worm burden.

[7] = system: Schistosoma mansoni adult schistosomes (49-day-old); assay: effect on adult schistosomes (49-day-old) in mice; type: in vivo; settings: single 400 mg/kg per os
Experimental: Mice were infected with 100 Schistosoma mansoni cercariae […]. Each group was treated per os with OZ compounds at single doses of 200, 400, and 600 mg/kg. […] All groups were killed 4 weeks after treatment and the liver and intestine were removed and separated. The liver and intestine were compressed and alive male and female worms could be seen and counted.

P. berghei ANKA strain [8] = assay: treatment: 3x3 mg/kg and 3x1 mg/kg po divided doses in infected mice; type: in vivo, Plasmodium berghei; settings: 3×1 mg/kg po on days 1, 2, 3 post-infection, SSV
Summary of the method: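 NMRI mice infected i.v. with 2×10^7 P. berghei ANKA-parasitized erythrocytes on day 0, then dosed orally in SSV vehicle at 3×3 or 3×1 mg/kg on days 1–3. Day-4 Giemsa smears gave percent parasitemia reduction versus untreated controls; survival to day 30 counted as cure.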

P. berghei ANKA strain [9] = assay: prophylactic activity, single 100 mg/kg po dose before infection; type: in vivo, Plasmodium berghei; settings: single 100 mg/kg po before infection
Experimental: Moro NMRI male mice (Fü Albino specific pathogen free) weighing 18±2 g were infected intravenously (i.v.) with 2×10^7 P. berghei ANKA strain-infected erythrocytes from donor mice on day 0 of the experiment. From donor mice with circa 30% parasitemia, heparinized blood was taken and diluted in physiological saline to 10^8 parasitized erythrocytes per ml. An aliquot (0.2 ml) of this suspension was injected i.v. into experimental and control groups of mice. In untreated control mice, parasitemia rose regularly to 40 to 50% by day 3 post-infection and 70 to 80% by day 4 post-infection. The mice died between days 5 and 7 post-infection. Throughout the experiments, mice were kept in groups of three or five animals in Makrolon type II cages in an air-conditioned animal room at 22 to 23° C. A diet with p-aminobenzoic acid (PABA) of 45 mg (NAFAG FUTTER© food N^o 9009 PAB-45) per kg of body weight, and tap water is available ad libitum.
OZ compounds were prepared at an appropriate concentration, either as a solution or a suspension containing SSV (0.5% w/v CMC, 0.5% v/v benzyl alcohol, 0.4% v/v Tween 80, and 0.9% w/v sodium chloride in water). They were administered per os (p.o.) in a total volume of 0.01 ml per gram of mouse. The activity of the compound was determined by a variety of methods outlined in subsequent sections. Survival time was also recorded, and survival to day 30 post-infection was considered to be a cure.
Prophylactic activities of the compounds were compared after administering po single dose of 100 mg/kg to different groups of five animals at various times before infection. All groups including an untreated control group, were then infected at the same time. Parasitemia was determined for each animal on day 3 post-infection, and percent of reduction of the level of parasitemia compared to levels for animals given no drug is determined.

Row | Structure (SMILES) | ED99 [1] [mg/kg] | Cures (P. berghei ANKA strain [2]; 1 × 30 mg/kg) | Cures (P. berghei ANKA strain [2]; 3 × 10 mg/kg) | IC50 (ng/ml) K1 [3] | IC50 (ng/ml) NF54 [4] | Activity (%) po [5] [%] | Activity (%) sc [5] [%] | Activity (%) SSVpo [5] [%] | Survival (days) po [5] [days] | Survival (days) sc [5] [days] | Survival (days) SSVpo [5] [days] | % reduction of schistosomule growth at day 21 after per os application of 200 mg/kg, FWR (%) [6] [%] | % reduction of schistosomule growth at day 21 after per os application of 200 mg/kg, TWR (%) [6] [%] | % reduction of adult worms growth at day 49 after per os application of 400 mg/kg, TWR (%) [7] [%] | adult worms at day 49, per os 400 mg/kg, DEAD WORM (%) [7] [%] | ED50 [1] [mg/kg] | ED90 [1] [mg/kg] | activity (percent reduction of parasitemia) (P. berghei ANKA strain [8]) | Survival (days) 10 mg/kg SSV po ([5]; single 10 mg/kg po in SSV) [days] | duration of prophylactic protection (P. berghei ANKA strain [9]) [days]
1 | CCN(CC)CCCC(C)Nc1ccnc2cc(Cl)ccc12 (stereo not shown) [CQ, chloroquine, reference compound] | 5.9 | 0/5 | 0/5 |  |  |  |  |  |  |  |  |  |  |  |  |  |  |  |  | 
2 | c1ccc(C[C@H]2CC[C@]3(CC2)OOC2(O3)C3CC4CC(C3)CC2C4)cc1 (stereo partly shown) [OZ156] | 4.7 |  |  | 2.1/2.1 ng/ml | 2.1/2.1 ng/ml | 99.98 | 99.98 | 98.8 | 17.0 | 19.7 | 10.3 | 72 | 75 | 0 | 6 | 1.3 | 2.6 |  |  | 
3 | CC(C)(O)C[C@H]1CC[C@]2(CC1)OOC1(O2)C2CC3CC(C2)CC1C3 (stereo partly shown) [OZ205] | 6.0 |  |  | 1.5 ng/mL (≈ 4.46 nM) | 2.0 ng/mL (≈ 5.94 nM) | 99.96 | 99.96 | 99.94 | 10.0 | 9.7 | 8.7 | 83 | 84 | 0 | 12 | 1.6 | 3.3 |  |  | 
4 | NC[C@H]1CC[C@]2(CC1)OOC1(O2)C2CC3CC(C2)CC1C3 (stereo partly shown) [OZ209] | 3.0 |  |  |  |  |  |  |  |  |  | 10.0 |  | 85 |  |  |  | 1.4 | greater than 99% |  | 
5 | NCC(=O)NC[C@H]1CC[C@]2(CC1)OO[C@]1(O2)C2CC3CC(C2)CC1C3 [OZ271] |  |  |  | 0.36 ng/mL (≈ 1.03 nM) | 0.29 ng/mL (≈ 0.827 nM) |  |  |  |  |  |  | 86 | 88 | 0 | 6 |  |  |  | 8.7 | 3
